Measured values taken from patent US8906953B2, “Pyrrolidine substitute flavones for the treatment of inflammatory disorders” (Piramal Enterprises Limited, priority 2010, dated 2014).

Assays:
[1] = test system: arthritic (CIA) DBA/1J mice; test: Collagen induced arthritis in mouse; format: in vivo; details: 50 mg/kg oral twice daily, 23 days
Description: The assay was designed as in reference, J. Exp. Med., 1985, 162, 637-646, the disclosure of which is incorporated herein by reference for the teaching of the assay.
Male DBA/1J mice (originally procured from Jackson Laboratories, USA), aged 8-10 weeks were immunized with an emulsion equivalent to 200 μg of type II collagen in Freund's Complete Adjuvant, injected intradermally at the base of the tail. A booster shot with the same emulsion was given 21 days later. A group of naïve mice was maintained alongside.
From day 23 to day 56, mice were examined daily once for the signs of rheumatoid arthritis, using the Articular Index and paw thickness as parameters. Articular Index scoring was performed employing the following criteria:
Mice with a minimum hind paw score of 2 were inducted into the study.
Mice were randomized into the various study groups and orally administered the vehicle (0.5% CMC, 1 ml/kg), test compound (compound of example 3, 50 mg/kg twice daily) and standard compound (Enbrel, 3 mg/kg, s.c., once daily). […] The dosing of the compounds was done for 23 days.
The following parameters were observed and recorded daily, • 1. Body weight • 2. Articular index • 3. Paw thickness in mm using a tension free caliper • 4. Any significant observation regarding the condition of the animal. […]
The results are graphically depicted in FIG. 3 (Articular index versus days of treatment) and FIG. 4 (Paw thickness versus days of treatment). Data obtained during the course of this study (articular index and paw thickness) was statistically evaluated by applying Mann-Whitney U test.
Mice were humanely euthanized and the hind paws were harvested from each animal, fixed in 10% neutral buffered formalin, decalcified in 5% formic acid and embedded in paraffin. Section […] were stained with either hematoxylin and eosin or safranin 0 and evaluated microscopically. Histopathological changes were scored as follows: mild (score=1), moderate (score=2) or severe (score=3) for the parameters of cellular infiltration, bone erosions and cartilage damage, graded separately. […]

E-selectin = test: TNF-α induced cell surface expression of E-selectin on HUVECs; format: cell-based; details: Homo sapiens, HUVEC; TNF-α (1 ng/mL) stimulated HUVECs, 6 hours, n=2
Description: The assay was designed as in reference, Transplantation, 1997, 63(5), 759-764, the disclosure of which is incorporated herein by reference for the teaching of the assay.
Human umbilical vein endothelial cells (HUVECs) were obtained from Cascade Biologics (Oregon-USA). Cells were cultured in M-200 medium (Cascade Biologics) supplemented with low serum growth supplements (LSGS) (Cascade Biologics), penicillin-G (100 U/mL), streptomycin (100 μg/mL) and amphotericin B (50 ng/mL) (GIBCO). […] After TNF-α stimulation (1 ng/mL) (R&D Systems (Minneapolis, Minn.)) for 4 hours at 37° C. in an atmosphere of 5% CO2, supernatants were harvested and assayed for the expression of ICAM-1 (intercellular cell adhesion molecules), whereas the expressions of VCAM-1 (vascular cell adhesion molecules) and E-selectin were evaluated after 6 hours of stimulation. […] To quantitatively measure the amount of cell surface expressions of ICAM-1, VCAM-1 and E-selectin, ELISA assay was performed using anti-ICAM-1 (clone BBIG-I1), anti-VCAM-1 (clone BBIG-V1), anti-E-selectin (clone BBIG-E4) antibodies, isotype control mouse IgG1 (clone 11711.11) and the secondary antibody (anti-mouse IgG-HRP antibody) which were procured from R&D Systems (Minneapolis, Minn., USA). […]

IL-8 = test: LPS-induced IL-8 release from hPBMCs (ELISA); format: cell-based; details: Homo sapiens
Description: Cytokine production by lipopolysaccharides (LPS) in hPBMCs (human peripheral blood mononuclear cells) was measured as in reference, Physiol. Res. 2003, 52, 593-598, the disclosure of which is incorporated by reference for the teaching of the assay. Blood was collected from healthy donors into Potassium EDTA vacutainer tubes (BID vacutainer). The PBMC were isolated using gradient centrifugation in Histopaque-1077 solution (Sigma). Isolated PBMC were suspended in RPMI 1640 (Rosewell Park Memorial Institute) culture medium (Sigma-Aldrich Fine Chemicals, USA) containing 10% fetal bovine serum (FBS) (JRH, USA), 100 U/mL penicillin (Sigma Chemical Co. St Louis, Mo., USA) and 100 μg/mL streptomycin (Sigma Chemical Co. St Louis, Mo.). The cell concentration was adjusted to 1×10^6 cells/mL. The viability as determined by trypan blue dye exclusion was uniform Ly≧98%. The cell suspension (100 μL) was added to the wells of a 96-well culture plate. Following cell plating, 79 μL of the culture medium and 1 μL of various concentrations of test compounds (compounds of formula 1) (final concentration 0.001, 0.003, 0.005, 0.01, 0.025, 0.03, 0.05, 0.1, 0.25, 0.3 and 1 μM) dissolved in DMSO (dimethyl sulfoxide, Sigma, Mo., USA) were added to the cells. The final concentration of DMSO was adjusted to 0.5%. The vehicle (0.5% DMSO) was used as control. […]

Q: Which results are given for CN1CC[C@@H](c2c(O)cc(O)c3c(=O)cc(-c4ccc(C(F)(F)F)cc4Cl)oc23)[C@@H]1CO.Cl [Compound of example 3, (+)-trans-2-(2-Chloro-4-trifluoromethyl-phenyl)-5,7-dihydroxy-8-(2-hydroxymethyl-1-methyl-pyrrolidin-3-yl)-chromen-4-one hydrochloride]?
A: Severity of disease by articular index and paw thickness [1]: trend towards ameriolation of the disease; Histopathological evaluation of hind paws ([1]; cellular infiltration, bone erosions, cartilage damage): potential anti-arthritic effect; IC50 (E-selectin): 650 nM; IC50 (IL-8): 1300 nM
